# Measured values: patent publication US5506122A, “Process for producing nucleosides” (Yamasa Shoyu Kabushiki Kaisha, priority 1989, dated 1996)
# Like-named read-outs stand apart in the source and are kept apart here.
# Assays:
# [1] = target: T1, purine nucleoside phosphorylase (Geobacillus stearothermophilus, UniProt P77834); assay: Substrate specificity: phosphorolysis of purine nucleoside substrates by purified enzyme; type: biochemical, Bacillus stearothermophilus TH6-2; conditions: for activity at 10000 µM: 10 min; for Substrate specificity of purine nucleoside phosphorylase, in words: within the range tested
# T1 construct: nucleoside phosphorylase obtained by extraction/purification from Bacillus stearothermophilus TH6-2; endogenous in cells; host or cells: Bacillus stearothermophilus TH6-2 (FERM BP-2758), enzyme purified in house from the wild cells
# T1 sequence (P77834 1-274): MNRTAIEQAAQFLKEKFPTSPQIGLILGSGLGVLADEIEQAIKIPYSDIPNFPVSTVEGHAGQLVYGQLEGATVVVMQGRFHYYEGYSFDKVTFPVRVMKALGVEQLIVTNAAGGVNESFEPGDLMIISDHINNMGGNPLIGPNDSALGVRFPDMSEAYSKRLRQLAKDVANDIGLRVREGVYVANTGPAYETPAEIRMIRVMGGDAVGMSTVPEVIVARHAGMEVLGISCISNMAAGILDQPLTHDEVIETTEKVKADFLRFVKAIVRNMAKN
# Method: Into 1.0 ml of a substrate solution (aqueous solution of pH 8.0 containing 20 mM inosine and 0.1M potassium dihydrogenphosphate) is added 20 μl of an enzyme solution (50 mM acetate buffer (pH 6.0) containing 1 μg of purified enzyme), and the reaction is carried out at 50° C. for 10 minutes. Then the reaction is stopped by addition of HCl to a final concentration of 0.1N, and also cooling at 0° C. for 10 minutes. Next, the reaction is subjected to centrifugation, and the supernatant obtained is then subjected to the HPLC method (column: YMC A-312 (manufactured by Yamamura Kagaku Kenkyusho, K.K.), eluent: 20 mM Tris-HCl buffer (pH 7.5) containing 5.0% acetonitrile, detection: 260 nm) to quantitate the hypoxanthine formed. The enzyme amount forming 1 μmol of hypoxanthine per one minute is defined as one unit ("U").
# (§1) By the use of an aqueous solution of pH 8.0 containing 10 mM of a nucleoside and 50 mM of potassium dihydrogenphosphate as a substrate solution, the reaction is carried out at 50° C. for 10 minutes, and after the reaction, except for quantitating the base of the nucleoside according to the HPLC method, the same method as in the assay of purine nucleoside phosphorylase activity is conducted.
# [2] = target: T2, pyrimidine nucleoside phosphorylase (Geobacillus stearothermophilus, UniProt P77836); assay: Substrate specificity: phosphorolysis of pyrimidine nucleoside substrates by purified enzyme; type: biochemical, Bacillus stearothermophilus TH6-2; conditions: for Amount of Base Formed / Relative Activity: 10 mM nucleoside, 50 mM potassium dihydrogenphosphate, pH 8.0, 50° C., 10 minutes; for Substrate specificity of pyrimidine nucleoside phosphorylase, in words: within the range tested
# T2 construct: nucleoside phosphorylase obtained by extraction/purification from Bacillus stearothermophilus TH6-2; endogenous in cells; host or cells: Bacillus stearothermophilus TH6-2 (FERM BP-2758), enzyme purified in house from the wild cells
# T2 sequence (P77836 1-433): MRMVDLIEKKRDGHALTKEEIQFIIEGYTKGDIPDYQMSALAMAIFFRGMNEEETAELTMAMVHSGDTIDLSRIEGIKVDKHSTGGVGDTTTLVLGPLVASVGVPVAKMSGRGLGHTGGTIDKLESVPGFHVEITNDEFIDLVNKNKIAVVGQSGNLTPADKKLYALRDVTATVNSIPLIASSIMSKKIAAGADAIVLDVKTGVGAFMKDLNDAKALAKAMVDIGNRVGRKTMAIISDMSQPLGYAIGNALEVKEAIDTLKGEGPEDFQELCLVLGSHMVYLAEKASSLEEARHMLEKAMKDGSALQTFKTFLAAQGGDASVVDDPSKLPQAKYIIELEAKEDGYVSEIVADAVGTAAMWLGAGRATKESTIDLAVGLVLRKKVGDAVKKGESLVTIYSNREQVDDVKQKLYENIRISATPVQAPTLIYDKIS
# Method: Except for using uridine in place of inosine in the substrate solution and quantitating uracil according to the HPLC method, the same method as in the above-described assay of purine nucleoside phosphorylase activity is conducted. The amount of enzyme forming 1 μmol of uracil per one minute is defined as one unit.
# as §1
# [3] = 10 mM nucleoside, 50 mM potassium dihydrogenphosphate, pH 8.0, 50° C., 10 minutes
# [4] = 10 mM nucleoside, 50 mM potassium dihydrogenphosphate, pH 8.0, 50° C., 10 minutes, read-out: Relative Activity
# [5] = pH 8, read-out: Relative Activity
Compound,"Amount of Base Formed [1, 3]","activity at 10000 µM [1, 4]",Amount of Base Formed [2],Relative Activity [2],further results
Nc1ncnc2c1ncn2[C@H]1C[C@H](O)[C@@H](CO)O1 [2'-Deoxyadenosine],0 μmol/10 min.,0%,,,
Nc1ccn([C@H]2C[C@H](O)[C@@H](CO)O2)c(=O)n1 [2'-Deoxycytidine],,,0 μmol/10 min.,0%,
Nc1nc2c(ncn2[C@H]2C[C@H](O)[C@@H](CO)O2)c(=O)[nH]1 [2'-Deoxyguanosine],2.18 μmol/10 min.,85%,,,"Substrate specificity of purine nucleoside phosphorylase, in words [1]: specific"
OC[C@H]1O[C@@H](n2cnc3c(O)ncnc32)C[C@@H]1O [2'-Deoxyinosine],2.54 μmol/10 min.,100%,,,"Substrate specificity of purine nucleoside phosphorylase, in words [1]: specific"
O=c1ccn([C@H]2C[C@H](O)[C@@H](CO)O2)c(=O)[nH]1 [2'-Deoxyuridine],,,2.55 μmol/10 min.,100%,"Substrate specificity of pyrimidine nucleoside phosphorylase, in words [2]: specific"
Nc1ncnc2c1ncn2[C@@H]1O[C@H](CO)C[C@H]1O [3'-Deoxyadenosine],0 μmol/10 min.,0%,,,
OC[C@@H]1C[C@@H](O)[C@H](n2cnc3c(O)ncnc32)O1 [3'-Deoxyinosine],0 μmol/10 min.,0%,,,
Nc1ncnc2c1ncn2[C@@H]1O[C@H](CO)[C@@H](O)[C@H]1O [Adenosine],0.15 μmol/10 min.,,,,"activity at 10000 µM [1, 5]: 5%; Substrate specificity of purine nucleoside phosphorylase, in words [1]: does not recognize them as the substrate"
Nc1ncnc2c1ncn2[C@@H]1O[C@H](CO)[C@@H](O)[C@@H]1O [Arabinofuranosyl adenine],,,,,"activity at 10000 µM [1, 5]: 0%"
O=c1ccn([C@@H]2O[C@H](CO)[C@@H](O)[C@@H]2O)c(=O)[nH]1 [Arabinofuranosyl uracil],,,,0%,
O=c1ccn2c(n1)O[C@H]1[C@H](O)[C@@H](CO)O[C@H]12 [Cyclouridine],,,0 μmol/10 min.,0%,
Nc1ccn([C@@H]2O[C@H](CO)[C@@H](O)[C@H]2O)c(=O)n1 [Cytidine],,,0 μmol/10 min.,0%,"Substrate specificity of pyrimidine nucleoside phosphorylase, in words [2]: does not recognize them as the substrate"
Nc1nc2c(ncn2[C@@H]2O[C@H](CO)[C@@H](O)[C@H]2O)c(=O)[nH]1 [Guanosine],2.15 μmol/10 min.,84%,,,"Substrate specificity of purine nucleoside phosphorylase, in words [1]: specific"
OC[C@H]1O[C@@H](n2cnc3c(O)ncnc32)[C@H](O)[C@@H]1O [Inosine],2.55 μmol/10 min.,100%,,,"Substrate specificity of purine nucleoside phosphorylase, in words [1]: specific"
O=c1[nH]cc([C@@H]2O[C@H](CO)[C@@H](O)[C@H]2O)c(=O)[nH]1 [Pseudouridine],,,0 μmol/10 min.,0%,
Cc1cn([C@@H]2O[C@H](CO)[C@@H](O)[C@H]2O)c(=O)[nH]c1=O [Ribofuranosyl thymine],,,,38%,
Cc1cn([C@H]2C[C@H](O)[C@@H](CO)O2)c(=O)[nH]c1=O [Thymidine],,,1.71 μmol/10 min.,67%,"Substrate specificity of pyrimidine nucleoside phosphorylase, in words [2]: specific"
O=c1ccn([C@@H]2O[C@H](CO)[C@@H](O)[C@H]2O)c(=O)[nH]1 [Uridine],,,1.73 μmol/10 min.,68%,"Substrate specificity of pyrimidine nucleoside phosphorylase, in words [2]: specific"
